Source: patent US20130296393A1, “METHOD FOR CONTROLLING CLUBROOT” (ISHIHARA SANGYO KAISHA, LTD., priority 2011, published 2013)

Legend:
Assay type in all cases: in vivo
[1] = tested on: Plasmodiophora brassicae; assay: Cabbage clubroot control test, farm field (Example 2 / Comparative Example 2); design: key to Disease control value: control value = {1 − (treated severity/control severity)}×100; key to Disease severity: severity = Σ(plants×index 0–4)/(plants surveyed×4)×100; conditions: for Disease control value / Disease severity: 77 days after settled planting
Excerpt: (§1) Disease severity={Σ(number of each index of diseased plants×disease index)/(number of plants surveyed×4)}×100
(§2) Disease control value={1−(treatment disease severity/control disease severity)}×100
(§3) 0: No adhesion of clubroot, 1: clubroot adhesion to lateral root, 2: clubroot adhesion to the entire lateral root or clubroot adhesion to a part of tap root, 3: adhesion of large clubroot to tap root, and 4: clubroot adhesion to the entire tap root.
A spore suspension of Plasmodiophora brassicae was sprayed on the entire farm field by using a watering pot to have a fungus density of 1×10^4 fungi/g dry soil. In this farm field, a cabbage (variety: Okina) seedling grown in a cell seedling tray (128 cells/seedling box) was settled-planted by establishing two plantings for each test section containing ten plants (interplant distance: 30 cm, interrow space: 30 cm, planting in two rows). Just after the settled planting, 4 days, 7 days and 11 days after settled planting, the chemical solution for spraying prepared by the same method as in Example 1(1) was drenched into the soil in a ratio of 250 ml/plant. Seventy-seven days after the settled planting, the number of each index of clubroot adhesion to the root was investigated. For comparison, the same test was carried out on a control section where a soil drench treatment with the chemical solution for spraying was not applied.
The test was carried out by the same method as in Example 2 except that in place of the soil drench treatment with the chemical solution for spraying, a chemical solution for spraying prepared by the same method as in Example 1(1) was sprayed on a cabbage (variety: Okina) seedling grown in a cell seedling tray (128 cells/seedling box) at a concentration of 2 liters/cell seedling tray by using a watering pot and these seedlings were settled-planted.
(§4) The disease severity and disease control value of Example 2 and Comparative Example 2 were determined by the same methods as in Example 1 and Comparative Example 1. In addition, the weight of cabbage in the aerial part was measured. Furthermore, the test result was shown by the average value of two plantings.

[2] = tested on: Plasmodiophora brassicae; assay: Cabbage clubroot control test, pot test (Example 1 / Comparative Example 1); design: key to Disease control value: {1−(treatment severity/control severity)}×100; key to Disease severity: Σ(plants×index 0-4)/(plants×4)×100; 0 = no clubroot; conditions: for Disease control value / Disease severity: 60 days after settled planting
Method: A chemical solution for spraying at 50 ppm was prepared by diluting 9.4% w/w cyazofamid (Ranman [trade name] flowable, manufactured by Ishihara Sangyo Kaisha Ltd.) with water.
A spore suspension of Plasmodiophora brassicae (fungus density: 1×10^5 fungi/g dry soil) was inoculated into a sterilization soil adjusted to pH of 6.2 with Sandoseto and after introducing the resulting test soil into a 1/5000 a pot, a cabbage (variety: Okina) seedling grown in a cell seedling tray (128 cells/seedling box) was settled-planted by establishing five plantings for each test section having a size of 0.02 m^2 per one plant. Just after the settled planting, 3 days, 7 days, 10 days and 14 days after the settled planting, the chemical solution for spraying prepared in (1) was applied by soil drench at a ratio of 250 ml/plant. Sixty days after the settled planting, the number of each index of clubroot adhesion to the root was investigated. For comparison, the same test was carried out on a control section where a soil drench treatment with the chemical solution for spraying was not applied.
(§5) The test was carried out by the same method as in Example 1(2) except that in place of the soil drench treatment with the chemical solution for spraying, 30 kg/10 a of 0.3% flusulfamide (dust formulation of Nebijin [trade name], manufactured by Mitsui Chemicals Agro, Inc.) was applied to the test soil just before settled planting and incorporated into the soil by means of a small mixer (interfusion depth: 15 cm).
In Example 1 and Comparative Example 1, the adhesion of clubroot was investigated by pulling out the root of cabbage. The adhesion of clubroot was investigated by calculating the disease severity using the following formula. In addition, the weight of cabbage in the aerial part was measured. Furthermore, the test result was shown by the average value of five plantings.
as §1, §2, §3

[3] = tested on: Plasmodiophora brassicae; assay: Influence of rainfall on clubroot control effect in cabbage (Example 4 / Comparative Example 4); design: key to Disease severity: 0–100 index: Σ(plants×disease index 0–4)/(plants×4)×100; key to Disease control value: {1−(treatment severity/control severity)}×100; 100 = full control; conditions: pot; for Disease control value / Disease severity: 67 days after settled planting
Method: as §1, §2, §3
The test was carried out by the same method as in Example 3 except for preparing an area subjected to a rainfall treatment of 20 mm by means of a rainfall apparatus (a treatment at a rate of 10 mm/hour for 2 hours) the day before treatment, and an area not subjected to the rainfall treatment. Sixty-seven days after the settled planting, the number of each index of clubroot adhesion to the root was investigated. For comparison, the same test was carried out on a control section where a soil drench treatment with the chemical solution for spraying was not applied.
as §5, with “4” for “1(2)”, “before the” for “before”
as §4, with “4” for “2”, “five” for “two”

[4] = 50 ppm soil drench 250 ml/plant 4 days after settled planting
[5] = 50 ppm soil drench 250 ml/plant 7 days after settled planting
[6] = 50 ppm soil drench 250 ml/plant 11 days after settled planting
[7] = 50 ppm soil drench 250 ml/plant just after settled planting
[8] = 50 ppm solution sprayed on seedlings in cell tray, 2 liters/cell seedling tray, just before settled planting
[9] = 50 ppm soil drench 250 ml/plant 3 days after settled planting
[10] = 50 ppm soil drench 250 ml/plant 10 days after settled planting
[11] = 50 ppm soil drench 250 ml/plant 14 days after settled planting
[12] = with rainfall treatment 20 mm, 50 ppm soil drench 250 ml/plant 4 days after settled planting
[13] = with rainfall treatment 20 mm, 50 ppm soil drench 250 ml/plant 7 days after settled planting
[14] = with rainfall treatment 20 mm, 50 ppm soil drench 250 ml/plant 14 days after settled planting
[15] = with rainfall treatment 20 mm, 50 ppm soil drench 250 ml/plant just after settled planting
[16] = without rainfall treatment, 50 ppm soil drench 250 ml/plant just after settled planting

Cc1ccc(-c2c(Cl)nc(C#N)n2S(=O)(=O)N(C)C)cc1 [cyazofamid, 4-chloro-2-cyano-1-dimethylsulfamoyl-5-(4-methylphenyl)imidazole]
Weight in the aerial part [1, 4]: 666 g
Disease control value [1, 4]: 87
Disease severity [1, 4]: 7
Weight in the aerial part [1, 5]: 579 g
Disease control value [1, 5]: 30
Disease severity [1, 5]: 38
Weight in the aerial part [1, 6]: 563 g
Disease control value [1, 6]: 11
Disease severity [1, 6]: 48
Weight in the aerial part [1, 7]: 713 g
Disease control value [1, 7]: 44
Disease severity [1, 7]: 30
Weight in the aerial part [1, 8]: 745 g
Disease control value [1, 8]: 44
Disease severity [1, 8]: 30
Weight in the aerial part [2, 9]: 156 g
Disease control value [2, 9]: 75
Disease severity [2, 9]: 20
Weight in the aerial part [2, 5]: 168 g
Disease control value [2, 5]: 69
Disease severity [2, 5]: 25
Weight in the aerial part [2, 10]: 164 g
Disease control value [2, 10]: 50
Disease severity [2, 10]: 40
Weight in the aerial part [2, 11]: 163 g
Disease control value [2, 11]: 31
Disease severity [2, 11]: 55
Weight in the aerial part [2, 7]: 164 g
Disease control value [2, 7]: 81
Disease severity [2, 7]: 15
Weight in the aerial part [3, 12]: 133 g
Disease control value [3, 12]: 100
Disease severity [3, 12]: 0
Weight in the aerial part [3, 13]: 129 g
Disease control value [3, 13]: 93
Disease severity [3, 13]: 5
Weight in the aerial part [3, 14]: 103 g
Disease control value [3, 14]: 29
Disease severity [3, 14]: 50
Weight in the aerial part [3, 15]: 121 g
Disease control value [3, 15]: 100
Disease severity [3, 15]: 0
Control effect ([3]; with rainfall treatment, soil drench within 7 days after settled planting): a practical control effect was obtained
Weight in the aerial part [3, 16]: 129 g
Disease control value [3, 16]: 100
Disease severity [3, 16]: 0
